Measurements taken from patent US8415469B2, “Compounds and methods for kinase modulation, and indications therefor” (Plexxikon Inc., priority 2005, dated 2013).
pIC50: −log10 of the molar value.

Experiments:
Assay type in all cases: biochemical
B-Raf V600E = molecular target: T1, B-Raf V600E (Homo sapiens, UniProt P15056, V600E); assay: AlphaScreen kinase assay, B-Raf V600E; details: read-out: IC50, activity toward kinase B-Raf V600E
T1 construct: P4254. pFastBacBD-CDC37 BRAF D437-K722-X, V600E; His6 with pFastBac HT leader (TEV site) (N); made in house; host or cells: Sf9 (baculovirus; chaperone CDC37 co-expressed)

Fms = molecular target: T2, Fms (Homo sapiens, UniProt P07333); assay: AlphaScreen kinase assay, Fms; details: read-out: IC50, activity toward kinase Fms
T2 construct: purchased Upstate Biotechnology

B-Raf = molecular target: T3, B-Raf (Homo sapiens, UniProt P15056); assay: AlphaScreen kinase assay, B-Raf; details: read-out: IC50, activity toward kinase B-Raf
T3 construct: purchased Upstate Biotechnology
T3 sequence (P15056 whole entry): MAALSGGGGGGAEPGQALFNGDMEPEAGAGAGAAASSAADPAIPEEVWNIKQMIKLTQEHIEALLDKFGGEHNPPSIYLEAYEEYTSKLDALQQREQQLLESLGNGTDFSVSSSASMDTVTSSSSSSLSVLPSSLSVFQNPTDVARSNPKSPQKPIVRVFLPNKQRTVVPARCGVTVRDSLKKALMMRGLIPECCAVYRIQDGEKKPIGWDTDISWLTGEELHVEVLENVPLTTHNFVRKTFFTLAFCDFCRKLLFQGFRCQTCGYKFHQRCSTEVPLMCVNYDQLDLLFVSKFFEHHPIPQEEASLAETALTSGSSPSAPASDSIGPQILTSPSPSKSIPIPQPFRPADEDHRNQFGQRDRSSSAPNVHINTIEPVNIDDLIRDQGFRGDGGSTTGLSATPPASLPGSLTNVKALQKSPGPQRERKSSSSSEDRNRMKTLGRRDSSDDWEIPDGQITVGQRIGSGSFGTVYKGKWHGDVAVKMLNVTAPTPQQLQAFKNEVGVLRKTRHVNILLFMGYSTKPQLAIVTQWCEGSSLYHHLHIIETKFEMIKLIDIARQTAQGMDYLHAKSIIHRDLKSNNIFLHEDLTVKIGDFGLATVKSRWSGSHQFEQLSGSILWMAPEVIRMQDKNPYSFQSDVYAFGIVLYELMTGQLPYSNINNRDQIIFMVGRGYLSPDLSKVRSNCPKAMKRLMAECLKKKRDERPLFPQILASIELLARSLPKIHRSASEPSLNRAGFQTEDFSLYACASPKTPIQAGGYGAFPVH

T1 sequence (P15056 with tags, fused parts or gaps V600E): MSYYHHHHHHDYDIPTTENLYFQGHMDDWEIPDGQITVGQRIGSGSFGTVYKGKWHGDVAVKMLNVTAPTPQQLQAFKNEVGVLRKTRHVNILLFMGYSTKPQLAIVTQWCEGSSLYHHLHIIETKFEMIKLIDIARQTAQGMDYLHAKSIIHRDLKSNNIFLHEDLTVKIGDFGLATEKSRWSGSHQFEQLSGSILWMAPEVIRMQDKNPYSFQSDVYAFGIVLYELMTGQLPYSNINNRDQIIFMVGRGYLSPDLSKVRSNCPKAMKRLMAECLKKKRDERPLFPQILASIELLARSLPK
T2 sequence (P07333 20-972): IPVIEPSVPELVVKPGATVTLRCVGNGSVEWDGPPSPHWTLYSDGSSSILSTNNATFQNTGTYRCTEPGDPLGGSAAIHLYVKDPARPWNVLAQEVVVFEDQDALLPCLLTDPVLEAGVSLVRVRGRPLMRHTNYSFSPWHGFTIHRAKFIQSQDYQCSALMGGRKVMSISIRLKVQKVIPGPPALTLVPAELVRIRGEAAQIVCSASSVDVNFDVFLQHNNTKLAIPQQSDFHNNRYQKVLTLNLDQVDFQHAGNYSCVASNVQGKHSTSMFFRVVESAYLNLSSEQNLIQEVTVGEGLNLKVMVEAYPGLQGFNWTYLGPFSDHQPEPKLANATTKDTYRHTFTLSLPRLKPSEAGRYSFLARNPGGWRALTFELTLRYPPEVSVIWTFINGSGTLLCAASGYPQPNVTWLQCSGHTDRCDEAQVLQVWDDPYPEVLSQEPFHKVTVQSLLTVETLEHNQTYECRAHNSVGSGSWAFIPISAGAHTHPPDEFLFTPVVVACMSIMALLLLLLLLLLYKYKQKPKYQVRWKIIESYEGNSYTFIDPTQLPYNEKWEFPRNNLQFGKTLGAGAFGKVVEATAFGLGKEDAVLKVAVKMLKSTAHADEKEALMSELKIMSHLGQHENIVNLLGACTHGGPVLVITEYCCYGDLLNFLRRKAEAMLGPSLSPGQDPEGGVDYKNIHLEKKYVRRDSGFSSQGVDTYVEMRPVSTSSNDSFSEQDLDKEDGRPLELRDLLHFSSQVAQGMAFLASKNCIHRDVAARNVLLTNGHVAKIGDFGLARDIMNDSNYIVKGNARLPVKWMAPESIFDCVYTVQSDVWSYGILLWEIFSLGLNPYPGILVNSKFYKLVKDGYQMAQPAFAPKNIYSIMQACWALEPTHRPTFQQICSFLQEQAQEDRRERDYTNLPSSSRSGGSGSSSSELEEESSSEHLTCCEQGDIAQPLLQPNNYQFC

| pIC50 (B-Raf V600E) | pIC50 (Fms) | pIC50 (B-Raf) | SMILES |
| --- | --- | --- | --- |
| ≥ 5.00 | ≥ 5.00 | ≥ 5.00 | O=C(c1cc(NS(=O)(=O)c2cccc(F)c2)ccc1Cl)c1c[nH]c2ncc(Cl)cc12 [Compound P-1663] |
| ≥ 5.00 | ≥ 5.00 | ≥ 5.00 | COc1cnc2[nH]cc(C(=O)c3cc(NS(=O)(=O)c4cccc(F)c4)ccc3Cl)c2c1 [Compound P-1664] |
| ≥ 5.00 | ≥ 5.00 | ≥ 5.00 | O=C(c1cc(NS(=O)(=O)c2cccc(F)c2)ccc1F)c1c[nH]c2ncc(Cl)cc12 [Compound P-1665] |
| ≥ 5.00 | ≥ 5.00 | ≥ 5.00 | O=C(c1c(F)ccc(NS(=O)(=O)c2ccc(C(F)(F)F)cc2)c1F)c1c[nH]c2ncc(-c3ccc(Cl)cc3)cc12 [Compound P-1670] |
| ≥ 5.00 | ≥ 5.00 | ≥ 5.00 | N#Cc1ccc(S(=O)(=O)Nc2cccc(C(=O)c3c[nH]c4ncccc34)c2)cc1 [Compound P-1701] |
| ≥ 5.00 | ≥ 5.00 | ≥ 5.00 | O=C(Nc1cccc(Cl)c1)Nc1cccc(C(=O)c2c[nH]c3ncccc23)c1 [Compound P-1710, 1-(3-Chloro-phenyl)-3-[3-(1H-pyrrolo[2,3-b]pyridine-3-carbonyl)-phenyl]-urea] |
| ≥ 5.00 | ≥ 5.00 | ≥ 5.00 | O=C(Nc1ccc(C(F)(F)F)cc1)Nc1cccc(C(=O)c2c[nH]c3ncccc23)c1 [Compound P-1717, 1-[3-(1H-Pyrrolo[2,3-b]pyridine-3-carbonyl)-phenyl]-3-(4-trifluoromethyl-phenyl)-urea] |
| ≥ 5.00 | ≥ 5.00 | ≥ 5.00 | O=C(Nc1cccc(Cl)c1)Nc1cccc(C(=O)c2c[nH]c3ncc(-c4cccnc4)cc23)c1 [Compound P-1726, 1-(3-Chloro-phenyl)-3-[3-(5-pyridin-3-yl-1H-pyrrolo[2,3-b]pyridine-3-carbonyl)-phenyl]-urea] |
| ≥ 5.00 | ≥ 5.00 | ≥ 5.00 | COc1ccc(NC(=O)Nc2cccc(C(=O)c3c[nH]c4ncc(Cl)cc34)c2)cc1 [Compound P-1734, 1-[3-(5-Chloro-1H-pyrrolo[2,3-b]pyridine-3-carbonyl)-phenyl]-3-(4-methoxy-phenyl)-urea] |
| ≥ 5.00 | ≥ 5.00 | ≥ 5.00 | O=C(Nc1cccc(C(=O)c2c[nH]c3ncc(Cl)cc23)c1)Nc1ccc(F)c(F)c1 [Compound P-1735, 1-[3-(5-Chloro-1H-pyrrolo[2,3-b]pyridine-3-carbonyl)-phenyl]-3-(3,4-difluoro-phenyl)-urea] |
| ≥ 5.00 | ≥ 5.00 | ≥ 5.00 | O=C(Nc1cccc(Cl)c1)Nc1cccc(C(=O)c2c[nH]c3ncc(Cl)cc23)c1 [Compound P-1736, 1-(3-Chloro-phenyl)-3-[3-(5-chloro-1H-pyrrolo[2,3-b]pyridine-3-carbonyl)-phenyl]-urea] |
| ≥ 5.00 | ≥ 5.00 | ≥ 5.00 | O=C(Nc1cccc(C(=O)c2c[nH]c3ncccc23)c1)Nc1cccc(C(F)(F)F)c1 [Compound P-1746, 1-[3-(1H-Pyrrolo[2,3-b]pyridine-3-carbonyl)-phenyl]-3-(3-trifluoromethyl-phenyl)-urea] |
| ≥ 5.00 | ≥ 5.00 | ≥ 5.00 | O=C(Nc1cccc(C(=O)c2c[nH]c3ncc(Cl)cc23)c1)Nc1cccc(C(F)(F)F)c1 [Compound P-1747, 1-[3-(5-Chloro-1H-pyrrolo[2,3-b]pyridine-3-carbonyl)-phenyl]-3-(3-trifluoromethyl-phenyl)-urea] |
| ≥ 5.00 | ≥ 5.00 | ≥ 5.00 | Cc1cccc(NC(=O)Nc2cccc(C(=O)c3c[nH]c4ncc(-c5ccc(F)cc5)cc34)c2)c1 [Compound P-1758, 1-{3-[5-(4-Fluoro-phenyl)-1H-pyrrolo[2,3-b]pyridine-3-carbonyl]-phenyl}-3-m-tolyl-urea] |
| ≥ 5.00 | ≥ 5.00 | ≥ 5.00 | COc1cc(NC(=O)Nc2cccc(C(=O)c3c[nH]c4ncccc34)c2)cc(C(F)(F)F)c1 [Compound P-1762, 1-(3-Methoxy-5-trifluoromethyl-phenyl)-3-[3-(1H-pyrrolo[2,3-b]pyridine-3-carbonyl)-phenyl]-urea] |
| ≥ 5.00 | ≥ 5.00 | ≥ 5.00 | COc1ccc(NC(=O)Nc2cccc(C(=O)c3c[nH]c4ncccc34)c2)cn1 [Compound P-1763, 1-(6-Methoxy-pyridin-3-yl)-3-[3-(1H-pyrrolo[2,3-b]pyridine-3-carbonyl)-phenyl]-urea] |
| ≥ 5.00 | ≥ 5.00 | ≥ 5.00 | O=C(Nc1cccc(C(=O)c2c[nH]c3ncccc23)c1)Nc1ccc(C(F)(F)F)c(Cl)c1 [Compound P-1766, 1-(3-Chloro-4-trifluoromethyl-phenyl)-3-[3-(1H-pyrrolo[2,3-b]pyridine-3-carbonyl)-phenyl]-urea] |
| ≥ 5.00 | ≥ 5.00 | ≥ 5.00 | O=C(Nc1cccnc1)Nc1cccc(C(=O)c2c[nH]c3ncc(Cl)cc23)c1 [Compound P-1771, 1-[3-(5-Chloro-1H-pyrrolo[2,3-b]pyridine-3-carbonyl)-phenyl]-3-pyridin-3-yl-urea] |
| ≥ 5.00 | ≥ 5.00 | ≥ 5.00 | COCCNC(=O)Nc1cccc(C(=O)c2c[nH]c3ncc(Cl)cc23)c1 [Compound P-1772, 1-[3-(5-Chloro-1H-pyrrolo[2 3-b]pyridine-3-carbonyl)-phenyl]-3-(2-methoxy-ethyl)-urea] |
| ≥ 5.00 | ≥ 5.00 | ≥ 5.00 | COc1cc(NC(=O)Nc2cccc(C(=O)c3c[nH]c4ncc(Cl)cc34)c2)cc(C(F)(F)F)c1 [Compound P-1773, 1-[3-(5-Chloro-1H-pyrrolo[2,3-b]pyridine-3-carbonyl)-phenyl]-3-(3-methoxy-5-trifluoromethyl-phenyl)-urea] |
| ≥ 5.00 | ≥ 5.00 | ≥ 5.00 | COc1ccc(NC(=O)Nc2cccc(C(=O)c3c[nH]c4ncc(Cl)cc34)c2)cn1 [Compound P-1774, 1-[3-(5-Chloro-1H-pyrrolo[2,3-b]pyridine-3-carbonyl)-phenyl]-3-(6-methoxy-pyridin-3-yl)-urea] |
| ≥ 5.00 | ≥ 5.00 | ≥ 5.00 | CN(C)c1ccc(NC(=O)Nc2cccc(C(=O)c3c[nH]c4ncccc34)c2)cc1 [Compound P-1780, 1-(4-Dimethylamino-phenyl)-3-[3-(1H-pyrrolo[2,3-b]pyridine-3-carbonyl)-phenyl]-urea] |
| ≥ 5.00 | ≥ 5.00 | ≥ 5.00 | O=C(Nc1cccnc1)Nc1cccc(C(=O)c2c[nH]c3ncccc23)c1 [Compound P-1781, 1-Pyridin-3-yl-3-[3-(1H-pyrrolo[2,3-b]pyridine-3-carbonyl)-phenyl]-urea] |
| ≥ 5.00 | ≥ 5.00 | ≥ 5.00 | CN(C)c1ccc(NC(=O)Nc2cccc(C(=O)c3c[nH]c4ncc(Cl)cc34)c2)cc1 [Compound P-1782, 1-[3-(5-Chloro-1H-pyrrolo[2,3-b]pyridine-3-carbonyl)-phenyl]-3-(4-dimethylamino-phenyl)-urea] |
| ≥ 5.00 | ≥ 5.00 | ≥ 5.00 | O=C(c1cccc(NS(=O)(=O)c2ccc(C(F)(F)F)cc2)c1)c1c[nH]c2ncccc12 [Compound P-1784] |
| ≥ 5.00 | ≥ 5.00 | ≥ 5.00 | O=C(c1c(F)ccc(NS(=O)(=O)c2cc3ccccc3s2)c1F)c1c[nH]c2ncc(Cl)cc12 [Compound P-1799, Benzo[b]thiophene-2-sulfonic acid [3-(5-chloro-1H-pyrrolo[2,3-b]pyridine-3-carbonyl)-2,4-difluoro-phenyl]-amide] |
| ≥ 5.00 | ≥ 5.00 | ≥ 5.00 | O=C(c1c(F)ccc(NS(=O)(=O)c2ccc(-c3ccccn3)s2)c1F)c1c[nH]c2ncc(Cl)cc12 [Compound P-1800, 5-Pyridin-2-yl-thiophene-2-sulfonic acid [3-(5-chloro-1H-pyrrolo[2,3-b]pyridine-3-carbonyl)-2,4-difluoro-phenyl]-amide] |
| ≥ 5.00 | ≥ 5.00 | ≥ 5.00 | COc1cnc2[nH]cc(Cc3c(F)ccc(OCc4ccccc4)c3F)c2c1 [Compound P-1804, 3-(3-Benzyloxy-2,6-difluoro-benzyl)-5-methoxy-1H-pyrrolo[2,3-b]pyridine] |
| ≥ 5.00 | ≥ 5.00 | ≥ 5.00 | O=C(Nc1ccc(F)cc1)Nc1cccc(C(=O)c2c[nH]c3ncc(-c4ccc(F)cc4)cc23)c1 [Compound P-1816, 1-(4-Fluoro-phenyl)-3-{3-[5-(4-fluoro-phenyl)-1H-pyrrolo[2,3-b]pyridine-3-carbonyl]-phenyl}-urea] |
| ≥ 5.00 | ≥ 5.00 | ≥ 5.00 | O=C(Nc1cccc(C(=O)c2c[nH]c3ncc(-c4ccc(F)cc4)cc23)c1)Nc1ccc(F)c(F)c1 [Compound P-1817, 1-(3,4-Difluoro-phenyl)-3-{3-[5-(4-fluoro-phenyl)-1H-pyrrolo[2,3-b]pyridine-3-carbonyl]-phenyl}-urea] |

| SMILES | pIC50 (B-Raf V600E) | pIC50 (Fms) | pIC50 (B-Raf) |
| --- | --- | --- | --- |
| CCCCOc1ccc(NC(=O)Nc2cccc(C(=O)c3c[nH]c4ncccc34)c2)cc1 [Compound P-1715, 1-(4-Butoxy-phenyl)-3-[3-(1H -pyrrolo[2,3-b]pyridine-3-carbonyl)-phenyl]-urea] | ≥ 5.00 | ≥ 5.00 | ≥ 5.00 |
| CCCCOc1ccc(NC(=O)Nc2cccc(C(=O)c3c[nH]c4ncc(Cl)cc34)c2)cc1 [Compound P-1741, 1-(4-Butoxy-phenyl)-3-[3-(5-chloro-1H-pyrrolo[2,3-b]pyridine-3-carbonyl)-phenyl]-urea] | ≥ 5.00 | ≥ 5.00 | ≥ 5.00 |
